# Measurements: article PMC11873239, “A covalent chemical probe for Chikungunya nsP2 cysteine protease with antialphaviral activity and proteome-wide selectivity” (Scientific Reports, 2025)
# Where “and” joins values, the source holds several entries; their conditions need not be identical. Equal entries are not always repeated.
# Experiments:
# CHIKV nsP2pro = CHIKV nsP2pro (Chikungunya virus, UniProt F2YI08); assay: biochemical
# [1] = biological target: HEK293 cell lysate proteins (Homo sapiens, UniProt P32119); type: binding
# [2] = biological target: HEK293 cell lysate proteins (Homo sapiens, UniProt P31025); type: binding
# [3] = biological target: HEK293 cell lysate proteins (Homo sapiens, UniProt P42357); type: binding
# [4] = biological target: HEK293 cell lysate proteins (Homo sapiens, UniProt P84103); type: binding
# [5] = biological target: HEK293 cell lysate proteins (Homo sapiens, UniProt P27708); type: binding
# [6] = biological target: HEK293 cell lysate proteins (Homo sapiens, UniProt Q13867); type: binding
# [7] = biological target: HEK293 cell lysate proteins (Homo sapiens, UniProt P81605); type: binding
# [8] = biological target: HEK293 cell lysate proteins (Homo sapiens, UniProt P22735); type: binding
# [9] = biological target: HEK293 cell lysate proteins (Homo sapiens, UniProt P23490); type: binding
# [10] = biological target: HEK293 cell lysate proteins (Homo sapiens, UniProt Q8WVV4); type: binding
# [11] = biological target: HEK293 cell lysate proteins (Homo sapiens, UniProt Q15424); type: binding
# [12] = biological target: HEK293 cell lysate proteins (Homo sapiens, UniProt P14923); type: binding
# [13] = biological target: HEK293 cell lysate proteins (Homo sapiens, UniProt P31151); type: binding
# [14] = biological target: HEK293 cell lysate proteins (Homo sapiens, UniProt Q96QA5); type: binding
# [15] = biological target: HEK293 cell lysate proteins (Homo sapiens, UniProt Q14151); type: binding
# [16] = biological target: HEK293 cell lysate proteins (Homo sapiens, UniProt P05109); type: binding
# [17] = biological target: HEK293 cell lysate proteins (Homo sapiens, UniProt P61626); type: binding
# [18] = biological target: HEK293 cell lysate proteins (Homo sapiens, UniProt Q08188); type: binding
# [19] = biological target: HEK293 cell lysate proteins (Homo sapiens, UniProt P04264); type: binding
# [20] = biological target: HEK293 cell lysate proteins (Homo sapiens, UniProt Q13835); type: binding
# [21] = biological target: HEK293 cell lysate proteins (Homo sapiens, UniProt Q15517); type: binding
# [22] = biological target: HEK293 cell lysate proteins (Homo sapiens, UniProt P07355); type: binding
# [23] = biological target: HEK293 cell lysate proteins (Homo sapiens, UniProt Q03164); type: binding
# [24] = biological target: HEK293 cell lysate proteins (Homo sapiens, UniProt Q6ZVX7); type: binding
# [25] = biological target: HEK293 cell lysate proteins (Homo sapiens, UniProt Q86VP6); type: binding
# [26] = biological target: HEK293 cell lysate proteins and CHIKV nsP2 (Homo sapiens, UniProt P59665); type: binding
# [27] = biological target: HEK293 cell lysate proteins and CHIKV nsP2 (Homo sapiens, UniProt O60524); type: binding
# [28] = biological target: HEK293 cell lysate proteins and CHIKV nsP2 (Homo sapiens, UniProt Q3YEC7); type: binding
# [29] = biological target: HEK293 cell lysate proteins and CHIKV nsP2 (Homo sapiens, UniProt Q08188); type: binding
# [30] = biological target: HEK293 cell lysate proteins and CHIKV nsP2 (Homo sapiens, UniProt Q15424); type: binding
# [31] = biological target: HEK293 cell lysate proteins and CHIKV nsP2 (Homo sapiens, UniProt Q7L014); type: binding
# [32] = biological target: HEK293 cell lysate proteins and CHIKV nsP2 (Homo sapiens, UniProt P22735); type: binding
# [33] = biological target: HEK293 cell lysate proteins and CHIKV nsP2 (Homo sapiens, UniProt Q9UHB7); type: binding
# [34] = biological target: HEK293 cell lysate proteins and CHIKV nsP2 (Homo sapiens, UniProt Q13428); type: binding
# [35] = biological target: HEK293 cell lysate proteins and CHIKV nsP2 (Homo sapiens, UniProt P55786); type: binding
# [36] = biological target: HEK293 cell lysate proteins and CHIKV nsP2 (Homo sapiens, UniProt O14617); type: binding
# [37] = biological target: HEK293 cell lysate proteins and CHIKV nsP2 (Homo sapiens, UniProt P04259); type: binding
# [38] = biological target: HEK293 cell lysate proteins and CHIKV nsP2 (Homo sapiens, UniProt Q99549); type: binding
# [39] = biological target: HEK293 cell lysate proteins and CHIKV nsP2 (Homo sapiens, UniProt P04040); type: binding
# Chain of HEK293 cell lysate proteins and CHIKV nsP2 (Homo sapiens, UniProt Q13428) (Q13428 whole entry): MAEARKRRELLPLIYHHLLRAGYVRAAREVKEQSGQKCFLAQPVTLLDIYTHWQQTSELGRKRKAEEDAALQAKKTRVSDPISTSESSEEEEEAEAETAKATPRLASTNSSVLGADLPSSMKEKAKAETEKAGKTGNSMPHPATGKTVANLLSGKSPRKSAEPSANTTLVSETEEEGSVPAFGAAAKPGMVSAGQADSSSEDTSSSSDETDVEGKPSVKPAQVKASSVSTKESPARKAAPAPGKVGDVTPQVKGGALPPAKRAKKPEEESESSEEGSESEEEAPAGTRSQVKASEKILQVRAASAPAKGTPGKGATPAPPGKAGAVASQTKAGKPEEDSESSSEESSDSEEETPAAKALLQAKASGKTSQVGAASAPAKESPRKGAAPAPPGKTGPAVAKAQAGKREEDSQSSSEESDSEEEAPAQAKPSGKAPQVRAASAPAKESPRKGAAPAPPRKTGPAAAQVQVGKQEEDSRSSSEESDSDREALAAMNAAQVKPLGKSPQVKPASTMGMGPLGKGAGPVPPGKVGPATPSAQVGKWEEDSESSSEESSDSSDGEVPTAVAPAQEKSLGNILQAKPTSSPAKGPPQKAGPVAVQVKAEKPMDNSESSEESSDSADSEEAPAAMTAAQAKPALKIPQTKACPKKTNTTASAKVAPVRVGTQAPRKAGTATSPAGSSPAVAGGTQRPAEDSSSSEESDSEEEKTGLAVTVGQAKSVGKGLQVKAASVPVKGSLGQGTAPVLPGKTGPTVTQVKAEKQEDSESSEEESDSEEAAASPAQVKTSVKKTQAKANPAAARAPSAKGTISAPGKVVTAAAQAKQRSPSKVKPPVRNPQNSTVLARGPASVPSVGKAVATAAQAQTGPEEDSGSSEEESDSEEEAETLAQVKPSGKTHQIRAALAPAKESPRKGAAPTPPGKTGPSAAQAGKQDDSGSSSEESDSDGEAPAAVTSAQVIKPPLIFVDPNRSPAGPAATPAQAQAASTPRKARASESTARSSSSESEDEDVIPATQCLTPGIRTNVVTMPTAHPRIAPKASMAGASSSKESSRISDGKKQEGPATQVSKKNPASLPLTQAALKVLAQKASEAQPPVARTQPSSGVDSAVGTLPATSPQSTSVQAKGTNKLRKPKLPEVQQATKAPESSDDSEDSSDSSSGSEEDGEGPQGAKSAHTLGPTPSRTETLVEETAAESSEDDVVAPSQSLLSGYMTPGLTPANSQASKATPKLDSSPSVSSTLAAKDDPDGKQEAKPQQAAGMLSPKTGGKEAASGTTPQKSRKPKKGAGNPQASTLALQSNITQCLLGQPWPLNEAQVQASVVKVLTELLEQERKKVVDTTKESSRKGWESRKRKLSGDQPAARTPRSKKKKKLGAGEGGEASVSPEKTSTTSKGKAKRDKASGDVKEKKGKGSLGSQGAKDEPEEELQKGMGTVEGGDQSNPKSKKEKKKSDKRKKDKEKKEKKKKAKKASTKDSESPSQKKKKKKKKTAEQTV
# Chain of HEK293 cell lysate proteins and CHIKV nsP2 (Homo sapiens, UniProt O60524) (O60524 whole entry): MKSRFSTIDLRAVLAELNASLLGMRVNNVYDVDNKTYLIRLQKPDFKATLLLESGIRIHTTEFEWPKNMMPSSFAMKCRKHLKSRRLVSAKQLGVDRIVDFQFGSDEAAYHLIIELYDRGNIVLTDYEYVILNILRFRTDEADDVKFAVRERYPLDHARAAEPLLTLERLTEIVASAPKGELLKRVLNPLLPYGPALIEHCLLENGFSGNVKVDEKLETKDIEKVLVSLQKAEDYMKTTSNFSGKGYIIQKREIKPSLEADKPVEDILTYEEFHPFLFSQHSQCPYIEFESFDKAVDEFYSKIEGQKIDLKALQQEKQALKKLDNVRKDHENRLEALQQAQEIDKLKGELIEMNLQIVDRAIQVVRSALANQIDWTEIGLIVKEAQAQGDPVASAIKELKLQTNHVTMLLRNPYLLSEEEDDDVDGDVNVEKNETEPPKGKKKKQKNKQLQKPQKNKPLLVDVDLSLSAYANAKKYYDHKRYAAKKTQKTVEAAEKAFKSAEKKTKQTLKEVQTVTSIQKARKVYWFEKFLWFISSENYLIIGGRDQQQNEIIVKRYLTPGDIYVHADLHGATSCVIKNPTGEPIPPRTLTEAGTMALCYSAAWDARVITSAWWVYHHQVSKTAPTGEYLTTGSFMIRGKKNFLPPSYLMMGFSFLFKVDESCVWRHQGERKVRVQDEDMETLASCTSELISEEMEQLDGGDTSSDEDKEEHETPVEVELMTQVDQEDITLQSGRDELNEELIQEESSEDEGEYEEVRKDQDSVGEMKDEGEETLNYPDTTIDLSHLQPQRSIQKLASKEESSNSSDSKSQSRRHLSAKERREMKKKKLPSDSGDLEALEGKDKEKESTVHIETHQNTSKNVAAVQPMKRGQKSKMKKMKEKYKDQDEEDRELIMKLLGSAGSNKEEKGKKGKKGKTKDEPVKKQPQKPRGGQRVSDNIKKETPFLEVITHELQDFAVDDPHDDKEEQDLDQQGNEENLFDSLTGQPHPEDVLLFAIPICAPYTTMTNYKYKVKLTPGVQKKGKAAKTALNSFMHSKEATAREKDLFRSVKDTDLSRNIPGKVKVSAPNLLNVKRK
# Chain of HEK293 cell lysate proteins (Homo sapiens, UniProt P84103) (P84103 whole entry): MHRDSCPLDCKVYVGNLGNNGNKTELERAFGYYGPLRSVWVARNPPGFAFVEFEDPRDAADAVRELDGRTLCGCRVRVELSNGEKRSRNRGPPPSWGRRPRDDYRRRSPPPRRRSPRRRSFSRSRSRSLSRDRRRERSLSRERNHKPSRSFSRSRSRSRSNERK
# Chain of HEK293 cell lysate proteins (Homo sapiens, UniProt Q08188) (Q08188 whole entry): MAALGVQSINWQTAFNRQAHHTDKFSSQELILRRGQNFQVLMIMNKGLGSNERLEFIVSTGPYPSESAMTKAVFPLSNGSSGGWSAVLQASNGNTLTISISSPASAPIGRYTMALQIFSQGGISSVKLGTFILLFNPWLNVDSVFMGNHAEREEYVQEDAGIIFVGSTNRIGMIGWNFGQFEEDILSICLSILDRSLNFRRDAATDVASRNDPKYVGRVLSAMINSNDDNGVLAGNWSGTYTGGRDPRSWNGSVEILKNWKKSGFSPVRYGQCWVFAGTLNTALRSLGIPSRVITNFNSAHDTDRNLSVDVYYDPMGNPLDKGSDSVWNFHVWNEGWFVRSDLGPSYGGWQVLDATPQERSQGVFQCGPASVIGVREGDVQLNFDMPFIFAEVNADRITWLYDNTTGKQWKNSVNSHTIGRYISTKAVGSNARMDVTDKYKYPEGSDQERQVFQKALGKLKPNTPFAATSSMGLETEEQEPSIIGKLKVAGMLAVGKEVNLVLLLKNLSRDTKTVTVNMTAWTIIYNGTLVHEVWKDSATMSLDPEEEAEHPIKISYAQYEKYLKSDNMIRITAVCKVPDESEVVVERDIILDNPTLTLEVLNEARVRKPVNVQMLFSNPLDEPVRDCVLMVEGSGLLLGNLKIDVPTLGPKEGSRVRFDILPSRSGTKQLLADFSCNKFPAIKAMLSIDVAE
# Chain of HEK293 cell lysate proteins and CHIKV nsP2 (Homo sapiens, UniProt Q08188) (Q08188 whole entry): as above
# Chain of HEK293 cell lysate proteins (Homo sapiens, UniProt P61626) (P61626 19-148): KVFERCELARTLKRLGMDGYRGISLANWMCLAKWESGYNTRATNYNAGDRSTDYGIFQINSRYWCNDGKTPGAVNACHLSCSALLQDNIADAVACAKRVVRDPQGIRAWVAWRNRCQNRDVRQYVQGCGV
# Chain of HEK293 cell lysate proteins (Homo sapiens, UniProt Q8WVV4) (Q8WVV4 whole entry): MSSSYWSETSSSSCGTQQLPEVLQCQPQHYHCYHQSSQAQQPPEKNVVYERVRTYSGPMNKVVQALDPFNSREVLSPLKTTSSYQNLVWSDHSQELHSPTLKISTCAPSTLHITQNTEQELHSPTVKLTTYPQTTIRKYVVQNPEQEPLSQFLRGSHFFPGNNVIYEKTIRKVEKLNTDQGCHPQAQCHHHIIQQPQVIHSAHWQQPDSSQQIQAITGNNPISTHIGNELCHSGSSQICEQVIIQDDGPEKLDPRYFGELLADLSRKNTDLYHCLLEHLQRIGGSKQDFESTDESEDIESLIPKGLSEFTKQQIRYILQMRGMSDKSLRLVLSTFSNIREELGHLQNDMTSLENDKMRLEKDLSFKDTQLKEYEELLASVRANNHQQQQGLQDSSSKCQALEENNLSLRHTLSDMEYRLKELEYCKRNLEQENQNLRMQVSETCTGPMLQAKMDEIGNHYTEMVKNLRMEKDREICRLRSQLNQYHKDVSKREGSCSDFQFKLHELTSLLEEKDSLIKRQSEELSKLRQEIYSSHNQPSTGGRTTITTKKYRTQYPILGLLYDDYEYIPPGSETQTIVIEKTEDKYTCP
# Chain of HEK293 cell lysate proteins (Homo sapiens, UniProt P32119) (P32119 whole entry): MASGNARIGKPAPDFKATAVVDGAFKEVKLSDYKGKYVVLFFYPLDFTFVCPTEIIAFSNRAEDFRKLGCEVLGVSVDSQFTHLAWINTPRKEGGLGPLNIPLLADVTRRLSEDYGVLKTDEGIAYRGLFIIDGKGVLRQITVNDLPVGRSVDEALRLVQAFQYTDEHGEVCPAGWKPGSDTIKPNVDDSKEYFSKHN
structure (smiles),measurement,setting,value
"C#CCOc1ccccc1-c1cc(C(=O)NC/C=C/S(C)(=O)=O)on1 [VS, (E)-N-(3-(methylsulfonyl)allyl)−3-(2-(prop-2-yn-1-yloxy)phenyl)isoxazole-5-carboxamide]",IC50,CHIKV nsP2pro,65 nM
same,Log2 fold change,[1],2.04
same,Log2 fold change,[2],1.54
same,Log2 fold change,[3],1.12
same,Log2 fold change,[4],1.43
same,Log2 fold change,[5],3.73
same,Log2 fold change,[6],1.56
same,Log2 fold change,[7],1.36
same,Log2 fold change,[8],1.60
same,Log2 fold change,[9],2.79
same,Log2 fold change,[10],5.21
same,Log2 fold change,[11],1.46
same,Log2 fold change,[12],1.97
same,Log2 fold change,[13],-1.22
same,Log2 fold change,[14],1.51
same,Log2 fold change,[15],1.50
same,Log2 fold change,[16],1.58
same,Log2 fold change,[17],1.36
same,Log2 fold change,[18],1.61
same,Log2 fold change,[19],1.49
same,Log2 fold change,[20],3.81
same,Log2 fold change,[21],1.22
same,Log2 fold change,[22],1.52
same,Log2 fold change,[23],-1.44
same,Log2 fold change,[24],2.74
same,Log2 fold change,[25],-1.19
same,Log2 fold change,[26],-2.83
same,Log2 fold change,[27],-0.75
same,Log2 fold change,[28],-2.27
same,Log2 fold change,[29],1.61
same,Log2 fold change,[30],1.46
same,Log2 fold change,[31],-0.13
same,Log2 fold change,[32],1.60
same,Log2 fold change,[33],-0.42
same,Log2 fold change,[34],1.02 and 1.32
same,Log2 fold change,[35],2.43
same,Log2 fold change,[36],-0.93
same,Log2 fold change,[37],3.24
same,Log2 fold change,[38],0.0737
same,Log2 fold change,[39],1.41
